# Reference: patent publication US20230284660A1, “Siamenoside I Sweetened Compositions and Uses of the Same” (The Coca-Cola Company, priority 2017, published 2023)
# What was measured:
# Type in all cases: in vivo, human
# [1] = Blind bench evaluation of sweeteners in six beverage matrices, RebM90 as control; details: Lemon Lime Sparkling (70% sugar reduction)
# Procedure: A blind evaluation of the above-named sweeteners was conducted in six (6) beverage (liquid) matrices, including both sparkling and still matrixes. Of the six beverage matrices, four (4) were calorie reduction matrixes and two (2) were diet matrixes. RebM90 served as control. 7-10 internal team members blindly evaluated the samples.
# [2] = Mock beverage tasting of sweeteners in citric acid buffer and phosphoric acid buffer; details: for Dosage for ~7 Brix SE: estimated concentrations, benchmark 500 ppm mogroside V
# Source text: Siamenoside I was separately tasted in citric acid buffer (pH 3.2) and phosphoric acid buffer (pH 2.6) at 500 ppm and compared against an equivalent solution of RebM90 (RebM with at least 90% purity) and various other sweeteners.
# Accordingly, the dosage of all other sweeteners was adjusted benchmark 500 ppm mogroside V. Estimated concentrations are presented below.
# [3] = Blind bench tasting of lemon-lime flavored carbonated beverages; details: in blends with Reb-M
# Procedure: The ingredients were dissolved in filtered water to constitute a syrup (6.5 times concentrated), then the final beverage was made by weighing the appropriate syrup amount and adding carbonated water using a ratio of 1 part syrup+5.5 parts carbonated water. Target carbonation volume in finished beverages was […] of CO2. For samples with high Reb-M content (#1 and #2) syrup water was heated to about 47° C. to allow Reb-M solubility, then cooled down to ambient temperature before adding the remaining ingredients. Final beverages were filled in 300 ml glass bottles then aged for 3 days at 35° C. before they were cooled and served cold (4° C.).
# Four experienced panelists bench tasted the beverages blindly. Each panelist was given warm bottled water and unsalted crackers to eat and rinse the palate between samples. A maximum of 3 samples was tasted at each session to avoid fatigue.
Compound,Dosage for ~7 Brix SE [2],also measured
C[C@H](CC[C@@H](O[C@@H]1O[C@H](CO[C@@H]2O[C@H](CO)[C@@H](O)[C@H](O)[C@H]2O)[C@@H](O)[C@H](O)[C@H]1O[C@@H]1O[C@H](CO)[C@@H](O)[C@H](O)[C@H]1O)C(C)(C)O)[C@H]1CC[C@@]2(C)[C@@H]3CC=C4[C@@H](CC[C@H](O[C@@H]5O[C@H](CO)[C@@H](O[C@@H]6O[C@H](CO)[C@@H](O)[C@H](O)[C@H]6O)[C@H](O)[C@H]5O)C4(C)C)[C@]3(C)[C@H](O)C[C@]12C [Isomogroside V],270 ppm,"Comments: less sweet [1]: less sweet (−1.5 BE), mogroside"
C[C@H](CC[C@@H](O[C@@H]1O[C@H](CO)[C@@H](O)[C@H](O)[C@H]1O[C@@H]1O[C@H](CO)[C@@H](O)[C@H](O)[C@H]1O)C(C)(C)O)[C@H]1CC[C@@]2(C)[C@@H]3CC=C4[C@@H](CC[C@H](O[C@@H]5O[C@H](CO)[C@@H](O)[C@H](O)[C@H]5O)C4(C)C)[C@]3(C)[C@H](O)C[C@]12C [Mogroside IIIe],350 ppm,
C[C@H](CC[C@@H](O[C@@H]1O[C@H](CO)[C@@H](O)[C@H](O)[C@H]1O[C@@H]1O[C@H](CO)[C@@H](O)[C@H](O)[C@H]1O)C(C)(C)O)[C@H]1CC[C@@]2(C)[C@H]3CC=C4[C@@H](CC[C@H](O[C@@H]5O[C@H](CO[C@@H]6O[C@H](CO)[C@@H](O)[C@H](O)[C@H]6O)[C@@H](O)[C@H](O)[C@H]5O)C4(C)C)[C@]3(C)[C@H](O)C[C@]12C [Mogroside IV],435 ppm,
C[C@H](CC[C@@H](O[C@@H]1O[C@H](CO[C@@H]2O[C@H](CO)[C@@H](O)[C@H](O)[C@H]2O)[C@@H](O)[C@H](O)[C@H]1O[C@@H]1O[C@H](CO)[C@@H](O)[C@H](O)[C@H]1O)C(C)(C)O)[C@H]1CC[C@@]2(C)[C@@H]3CC=C4[C@@H](CC[C@H](O[C@@H]5O[C@H](CO[C@@H]6O[C@H](CO)[C@@H](O)[C@H](O)[C@H]6O)[C@@H](O)[C@H](O)[C@H]5O)C4(C)C)[C@]3(C)[C@H](O)C[C@]12C [Mogroside V],500 ppm,"Brix SE ([2]; 500 ppm): approximately 7 Brix SE; relative sweetness of solutions ([2]; 500 ppm, citric acid buffer pH 3.2 and phosphoric acid buffer pH 2.6): the least sweet"
C=C1C[C@@]23CC[C@H]4[C@@](C)(CCC[C@@]4(C)C(=O)O[C@@H]4O[C@H](CO)[C@@H](O)[C@H](O[C@@H]5O[C@H](CO)[C@@H](O)[C@H](O)[C@H]5O)[C@H]4O[C@@H]4O[C@@H](C)[C@H](O)[C@@H](O)[C@H]4O)[C@@H]2CC[C@]1(O[C@@H]1O[C@H](CO)[C@@H](O)[C@H](O[C@@H]2O[C@H](CO)[C@@H](O)[C@H](O)[C@H]2O)[C@H]1O[C@@H]1O[C@H](CO)[C@@H](O)[C@H](O)[C@H]1O)C3 [Rebaudioside N],360 ppm,
C[C@H](CC[C@@H](O[C@@H]1O[C@H](CO[C@@H]2O[C@H](CO)[C@@H](O)[C@H](O)[C@H]2O)[C@@H](O)[C@H](O)[C@H]1O[C@@H]1O[C@H](CO)[C@@H](O)[C@H](O)[C@H]1O)C(C)(C)O)[C@H]1CC[C@@]2(C)[C@@H]3CC=C4[C@@H](CC[C@H](O[C@@H]5O[C@H](CO)[C@@H](O)[C@H](O)[C@H]5O)C4(C)C)[C@]3(C)[C@H](O)C[C@]12C [Siamenoside I],350 ppm,maximum sweetness intensity [3]: 10 Brix equivalent
